Key:
[1] = Distribution coefficient (logD) of ^68Ga-labeled ligands between octanol and PBS
[2] = Fe(III) complex stability constants by potentiometric and pH-dependent UV–vis titrations; assay type: physicochemical; conditions: calculated for [L] = 1 × 10^–4, [M] = 1 × 10^–5 at pH 7.4
Method: Therefore, the stability constants of the first species formed in solution were determined from the spectrophotometric pH-dependent batch titrations carried out in the pH range of around 0.1–2 (Figure S3), by following the changes in the intense LMCT band of the metal complex. These values were further used as constant values in spectrophotometric or potentiometric titrations carried out in the pH range from 2 to 11 (Figure S3) to get the overall stability constants, logβFeL (Table S5). […] Metal–metal competition titrations were carried out at pH 1.6 for FOX 2-5 and FOX 2-4 and at pH 2 for the rest of the analogs and the native compound.
(§1) Potentiometric titrations were performed using an automatic titrator system Titrando 905 (Metrohm) equipped with a 800 Dosino dosing unit and a microburet with a volume of 2 mL. A combined glass electrode was calibrated each day for hydrogen ion concentration by 0.1 M HClO4 with CO2-free 0.1 M NaOH solutions. A stream of high purity grade argon, presaturated with water vapor, passed over the surface of the solution cell, filled with 3 mL of the studied solution. For each system, a minimum of four independent titrations was performed. The purity of ligand and accurate concentration of ligand solution were determined before each experiment with the Gran method[68] by potentiometric titration of the 3 mL sample of the ligand, with [L] ∼ 1 × 10^–3 M. In separate potentiometric titrations, the metal-to-ligand ratio was 1:1, and the concentration of metal was 2 × 10^–3 M. The potentiometric data were refined to obtain the overall Fe(III)-FOXE and Ga(III)-FOXE derivative binding constants (logβFe(III)L, logβGa(III)L).
The absorption measurements (200 nm–800 nm) were performed on a Varian Cary 300 Bio UV–visible spectrophotometer. The solutions were measured in high precision Quartz […] cuvettes (1 and 3 mL) with 1 cm lightpath (Hellma).
Two series of experiments were performed: (i) in the pH range of 0.1–2 and (ii) between pH 2 and 11. In the first series of experiments, (i) the stock solution of the ligand was divided into various batches followed by Fe(III) addition, with a constant total volume of 2 mL, [Fe(III)] = 2 × 10^–4 M, and a metal-to-ligand molar ratio of 1:1. The pH was controlled by concentration of the perchloric acid. After preparation, each solution was allowed to equilibrate for 1 h at 25 °C, and then its UV–vis spectrum was recorded.
The experimental sets with over 140 points collected in the pH range 2–11 for a single potentiometric measurement were imported to the […] software,[69] which uses nonlinear least-squares methods for data treatment. Spectroscopic data were refined using SPECFIT/32 software, which uses factor analysis to reduce the absorbance matrix and to extract the eigenvalues prior to the multiwavelength fit of the reduced data set according to the Marquardt algorithm and adjusts the absorptivity and the stability constants of the species formed at equilibrium.[70]−[72] Standard deviation was used for the calculation of the uncertainties in logβ. Speciation plots were prepared using HYSS software,[73] implementing data gathered in Tables S4, S5, and S8. Raw data was processed using Origin 7.0.

[3] = Ligand protonation constants by potentiometric titration; assay type: physicochemical; conditions: [L] = 1·10^-3 M, T = 25°C, I = 0.1 M NaClO4
Method: as §1, with “logβGa(III)L). […]” for “logβGa(III)L).”
Ligand’s protonation constants
The acid-base properties of investigated ligands were studied by potentiometric technique. The optimized logβ values defined by equations (S1) and (S2) were calculated using […] 1 […]
or Hyperquad 20062 programs (Table S4). For the sake of simplicity charges are omitted in all chemical equilibria given here.
Table S4. Protonation (logβ H) constants for studied ligandsa […]
aConstants determined from potentiometric titrations. Conditions: [L] = 1·10^-3 M, T = 25°C, I = 0.1 M NaClO 4, b Ref 3 […]

[4] = Fe(III) complex stability constants by potentiometric and pH-dependent UV–vis titrations; assay type: physicochemical; conditions: I = 0.1 M NaClO4; for logβ[FeHL]+ / logβ[FeL] / pKNHOH of Fe(III) complex: M:L 1:1, T = 25°C; for logβFe(III)L: potentiometric [L] = 1 × 10^–3 M and UV–vis 5 × 10^–5 M, M:L 1:1, T = 25 °C
[5] = UV-Vis pH-dependent titrations, 1·10^-4 M
[6] = potentiometric, [L] = 1·10^-3 M

SMILES | logD at 20 min [1] | pFe(III) [2] | protonation constant logβ, H2L + H+ ↔ H3L [3] | protonation constant logβ, HL + H+ ↔ H2L [3] | protonation constant logβ, L + H+ ↔ HL [3] | logβ[FeHL]+ [4, 5] | logβFe(III)L [4] | logβ[FeL] [4, 6] | pKNHOH of Fe(III) complex [4, 6] | logβ[FeL] [4, 5] | pKNHOH of Fe(III) complex [4, 5]
O=C1CCN(O)C(=O)CCNC(=O)CCN(O)C(=O)CCNC(=O)CCN(O)C(=O)CCN1 [FOX 2-2] | -2.66 | 21.5 | 27.62(2) | 19.28(1) | 9.97(1) | 30.64 (6) | 25.92(8) | 25.92 (8) | 4.72 |  | 
O=C1CCCN(O)C(=O)CCNC(=O)CCCN(O)C(=O)CCNC(=O)CCCN(O)C(=O)CCN1 [FOX 2-3] | -2.96 | 22.7 | 27.71(1) | 19.27(1) | 9.94(1) | 30.44 (5) | 27.22(2) | 27.22 (2) | 3.22 | 26.70 (9) | 3.74
O=C1CCCCN(O)C(=O)CCNC(=O)CCCCN(O)C(=O)CCNC(=O)CCCCN(O)C(=O)CCN1 [FOX 2-4] | -3.02 | 24.3 | 27.64(1) | 19.21(1) | 9.93(1) | 30.83 (4) | 28.71(7) |  |  | 28.71 (7) | 2.12
O=C1CCCCCN(O)C(=O)CCNC(=O)CCCCCN(O)C(=O)CCNC(=O)CCCCCN(O)C(=O)CCN1 [FOX 2-5] | -1.9 | 27.0 | 26.53(1) | 19.09(1) | 9.86(1) |  |  |  |  | 31.32 (8) | 
O=C1CCCCCN(O)C(=O)CCCNC(=O)CCCCCN(O)C(=O)CCCNC(=O)CCCCCN(O)C(=O)CCCN1 [FOX 3-5] | -1.57 | 24.1 | 27.79(1) | 19.53(1) | 10.19(1) |  |  | 28.81 (1) | 2.32 | 28.59 (3) | 2.54

— PMC8653149, “Cyclic Analogs of Desferrioxamine E Siderophore for ^68Ga Nuclear Imaging: Coordination Chemistry and Biological Activity in Staphylococcus aureus” (Inorganic Chemistry, 2021)
